The values below come from patent publication US11787785B2 (NOVARTIS AG, priority 2021, dated 2023).

This assay has as its target T1, WIZ protein (HiBit-WIZ fusion protein) (Homo sapiens, UniProt O95785+Q96SW2).
T1 construct: expressed in transfected cells
The assay can be described thus: Quantification of WIZ protein levels in HiBit tag fusion protein assay (WIZ HiBit assay in 293T cells). Conditions: for Dmax at 25 µM: 100 − Amax; for Dmax at 25 µM / remaining activity at 25 µM: 293T cells; for remaining activity at 25 µM: DMSO-normalized, curve-fitted percentage of WIZ-HiBit remaining at 25 uM; for DC50: WIZ HiBit assay in 293T cells, 10-point, 5-fold dose response, highest concentration 25 μM, about 18 hours, read-out: WIZ AC50. Details: remaining activity / Dmax: dose or concentration left out as unconfirmed. Format: cell-based. The method in brief:
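Luminescence after LgBit complementation quantified remaining HiBit-WIZ in lysates of single-copy stable 293T lines. Cells dosed ~18 h at 37 °C with 10-point, 5-fold dilutions (highest 25 μM); DMSO set to 100%, fitted curve gave % remaining at 25 μM (Amax).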
For orientation: With HiBiT, luminescence reflects the tagged protein that the partner subunit can reach.

The mark [1] stands for this setting: HEK-293T, read-out: % degradation of WIZ (100 − Amax).

T1 sequence (O95785 whole entry, the tested form may be a part): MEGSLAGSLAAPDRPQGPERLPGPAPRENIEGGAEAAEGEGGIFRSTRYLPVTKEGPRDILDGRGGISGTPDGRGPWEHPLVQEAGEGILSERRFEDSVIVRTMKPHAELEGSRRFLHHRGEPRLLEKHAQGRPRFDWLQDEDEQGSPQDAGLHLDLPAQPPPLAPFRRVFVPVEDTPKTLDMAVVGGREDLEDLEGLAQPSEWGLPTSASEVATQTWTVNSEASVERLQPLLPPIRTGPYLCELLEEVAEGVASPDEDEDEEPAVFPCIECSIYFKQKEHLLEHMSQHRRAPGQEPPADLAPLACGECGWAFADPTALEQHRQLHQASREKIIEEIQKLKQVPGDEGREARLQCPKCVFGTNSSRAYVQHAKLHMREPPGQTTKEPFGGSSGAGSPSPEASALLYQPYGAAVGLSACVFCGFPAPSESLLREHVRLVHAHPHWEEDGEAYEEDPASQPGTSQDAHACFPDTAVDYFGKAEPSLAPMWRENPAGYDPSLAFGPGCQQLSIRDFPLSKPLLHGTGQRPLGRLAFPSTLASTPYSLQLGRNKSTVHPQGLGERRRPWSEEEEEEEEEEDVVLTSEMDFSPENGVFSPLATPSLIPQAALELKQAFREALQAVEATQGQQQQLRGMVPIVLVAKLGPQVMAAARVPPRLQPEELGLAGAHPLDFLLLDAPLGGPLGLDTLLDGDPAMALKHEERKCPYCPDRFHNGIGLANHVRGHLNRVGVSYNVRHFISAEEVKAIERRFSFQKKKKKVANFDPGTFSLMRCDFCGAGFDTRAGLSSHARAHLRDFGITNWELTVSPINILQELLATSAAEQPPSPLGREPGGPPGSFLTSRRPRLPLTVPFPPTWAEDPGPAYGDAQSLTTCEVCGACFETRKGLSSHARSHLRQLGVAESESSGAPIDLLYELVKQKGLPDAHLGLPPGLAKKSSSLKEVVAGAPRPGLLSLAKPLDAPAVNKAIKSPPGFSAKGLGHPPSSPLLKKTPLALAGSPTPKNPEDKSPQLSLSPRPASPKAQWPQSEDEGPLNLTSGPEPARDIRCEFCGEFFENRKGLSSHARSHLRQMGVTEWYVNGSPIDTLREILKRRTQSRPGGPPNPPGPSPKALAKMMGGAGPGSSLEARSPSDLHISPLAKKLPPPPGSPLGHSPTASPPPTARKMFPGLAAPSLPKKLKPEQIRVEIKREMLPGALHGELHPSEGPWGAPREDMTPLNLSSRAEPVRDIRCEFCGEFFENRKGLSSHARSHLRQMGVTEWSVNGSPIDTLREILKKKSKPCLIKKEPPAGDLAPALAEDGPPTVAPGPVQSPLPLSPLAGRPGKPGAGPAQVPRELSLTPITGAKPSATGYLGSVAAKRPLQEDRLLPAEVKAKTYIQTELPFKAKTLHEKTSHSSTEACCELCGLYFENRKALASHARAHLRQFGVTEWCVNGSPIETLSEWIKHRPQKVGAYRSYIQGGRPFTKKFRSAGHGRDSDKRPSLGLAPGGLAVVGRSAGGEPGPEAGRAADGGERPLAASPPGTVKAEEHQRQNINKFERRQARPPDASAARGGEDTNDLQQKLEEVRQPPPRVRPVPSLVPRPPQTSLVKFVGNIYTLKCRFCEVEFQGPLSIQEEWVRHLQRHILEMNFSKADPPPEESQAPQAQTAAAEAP
T1 sequence (Q96SW2 whole entry, the tested form may be a part): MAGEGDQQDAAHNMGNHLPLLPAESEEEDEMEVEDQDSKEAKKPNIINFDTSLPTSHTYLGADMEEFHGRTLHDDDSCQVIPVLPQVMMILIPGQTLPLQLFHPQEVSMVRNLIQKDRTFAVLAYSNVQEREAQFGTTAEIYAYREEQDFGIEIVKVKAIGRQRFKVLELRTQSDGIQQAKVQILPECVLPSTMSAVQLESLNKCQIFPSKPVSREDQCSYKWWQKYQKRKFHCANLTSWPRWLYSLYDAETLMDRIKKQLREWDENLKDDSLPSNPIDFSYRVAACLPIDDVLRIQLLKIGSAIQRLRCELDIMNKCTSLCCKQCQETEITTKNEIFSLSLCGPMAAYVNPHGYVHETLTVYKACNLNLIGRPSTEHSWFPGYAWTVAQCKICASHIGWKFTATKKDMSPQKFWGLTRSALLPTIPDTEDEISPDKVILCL
T1 sequence (Q16531 whole entry partner, the tested form may be a part): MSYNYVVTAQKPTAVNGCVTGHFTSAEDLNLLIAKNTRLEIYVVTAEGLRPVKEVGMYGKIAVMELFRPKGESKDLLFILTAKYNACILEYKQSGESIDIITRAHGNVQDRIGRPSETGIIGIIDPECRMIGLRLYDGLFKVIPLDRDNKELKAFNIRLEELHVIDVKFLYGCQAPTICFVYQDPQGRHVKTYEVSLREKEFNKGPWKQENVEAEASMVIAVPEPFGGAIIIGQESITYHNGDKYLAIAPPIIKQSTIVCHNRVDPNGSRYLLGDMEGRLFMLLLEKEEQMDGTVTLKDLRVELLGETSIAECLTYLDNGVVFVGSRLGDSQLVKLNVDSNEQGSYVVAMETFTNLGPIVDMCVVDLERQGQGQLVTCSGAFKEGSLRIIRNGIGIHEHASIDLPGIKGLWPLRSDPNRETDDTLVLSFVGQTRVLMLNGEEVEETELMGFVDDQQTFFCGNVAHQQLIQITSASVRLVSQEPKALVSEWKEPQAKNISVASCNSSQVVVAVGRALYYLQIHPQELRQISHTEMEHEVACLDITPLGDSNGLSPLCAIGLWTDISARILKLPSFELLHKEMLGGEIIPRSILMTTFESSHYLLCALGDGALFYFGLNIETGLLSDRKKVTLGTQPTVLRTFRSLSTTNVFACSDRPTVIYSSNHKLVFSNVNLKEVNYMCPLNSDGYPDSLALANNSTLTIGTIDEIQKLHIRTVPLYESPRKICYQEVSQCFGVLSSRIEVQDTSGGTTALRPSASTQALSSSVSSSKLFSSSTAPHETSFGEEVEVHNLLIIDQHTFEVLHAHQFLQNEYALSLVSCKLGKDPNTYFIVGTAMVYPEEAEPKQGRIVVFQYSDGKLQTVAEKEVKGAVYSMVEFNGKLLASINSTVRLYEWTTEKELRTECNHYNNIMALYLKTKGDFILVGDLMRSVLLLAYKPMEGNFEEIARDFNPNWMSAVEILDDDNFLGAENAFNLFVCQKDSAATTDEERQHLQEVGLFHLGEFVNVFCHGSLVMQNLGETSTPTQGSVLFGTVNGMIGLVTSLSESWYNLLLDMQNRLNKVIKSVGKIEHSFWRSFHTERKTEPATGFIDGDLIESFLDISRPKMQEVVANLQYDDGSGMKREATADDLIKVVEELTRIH

For `C[C@H]1CN(Cc2ccn3ncc(N4CCC(=O)NC4=O)c3c2)CCN1CC1CCC1` [Example 213, (S)-1-(5-((4-(cyclobutylmethyl)-3-methylpiperazin-1-yl)methyl)pyrazolo[1,5-a]pyridin-3-yl)dihydropyrimidine-2,4(1H,3H)-dione], the DC50 worked out at 48 nM. Further, the Dmax at 25 µM under setting [1] turned out to be 81%. Moreover, the remaining activity at 25 µM (HEK-293T, read-out: WIZ Amax) came out at 19%.
For `O=C1CCN(c2cnn3ccc(CN4CCN5CCOC[C@@H]5C4)cc23)C(=O)N1` [Example 264, (S)-1-(5-((hexahydropyrazino[2,1-c][1,4]oxazin-8(1H)-yl)methyl)pyrazolo[1,5-a]pyridin-3-yl)dihydropyrimidine-2,4(1H,3H)-dione], the DC50 is 260 nM. In addition, under setting [1], the Dmax at 25 µM is 64%. Moreover, where the note is “HEK-293T, read-out: WIZ Amax”, the remaining activity at 25 µM came out at 36%.
The corresponding values for `O=C1CCN(c2cnn3ccc(CC4CCN(S(=O)(=O)NC5CCCC5)CC4)cc23)C(=O)N1` [Example 298, N-cyclopentyl-4-((3-(2,4-dioxotetrahydropyrimidin-1(2H)-yl)pyrazolo[1,5-a]pyridin-5-yl)methyl)piperidine-1-sulfonamide] are 242 nM, 51% and 49%.
`O=C1CCN(c2cnn3ccc(CC4CCN(Cc5ccccc5F)CC4)cc23)C(=O)N1` [Example 38, 1-(5-((1-(2-fluorobenzyl)piperidin-4-yl)methyl)pyrazolo[1,5-a]pyridin-3-yl)dihydropyrimidine-2,4(1H,3H)-dione]: the DC50 stood at 112 nM. Moreover, the Dmax at 25 µM under setting [1] is 71%. Also, the remaining activity at 25 µM (HEK-293T, read-out: WIZ Amax) was found to be 29%.
Consider `O=C1CCN(c2cnn3ccc(CC4CCN(Cc5cc(F)cc(C(F)(F)F)c5)CC4)cc23)C(=O)N1` [Example 51, 1-(5-((1-(3-fluoro-5-(trifluoromethyl)benzyl)piperidin-4-yl)methyl)pyrazolo[1,5-a]pyridin-3-yl)dihydropyrimidine-2,4(1H,3H)-dione], for which the DC50 came out at 39 nM. Moreover, the Dmax at 25 µM under setting [1] came to 66%. Further, the remaining activity at 25 µM (HEK-293T, read-out: WIZ Amax) came out at 34%.
On the same counts, the results for `O=C1CCN(c2cnn3ccc(CC4CCN(CC5CCCOC5)CC4)cc23)C(=O)N1` (stereo not drawn) [Example 7, 1-(5-((1-((tetrahydro-2H-pyran-3-yl)methyl)piperidin-4-yl)methyl)pyrazolo[1,5-a]pyridin-3-yl)dihydropyrimidine-2,4(1H,3H)-dione] are 23 nM, 86% and 14%.
The corresponding values for `C[C@@H]1CC(CN2CCC(Cc3ccn4ncc(N5CCC(=O)NC5=O)c4c3)CC2)C[C@H](C)O1` (stereo partly drawn) [Example 113] are 4 nM, 88% and 12%.
Consider `Cc1ccccc1CN1CCC(Cc2ccn3ncc(N4CCC(=O)NC4=O)c3c2)CC1` [Example 41, 1-(5-((1-(2-methylbenzyl)piperidin-4-yl)methyl)pyrazolo[1,5-a]pyridin-3-yl)dihydropyrimidine-2,4(1H,3H)-dione], for which the DC50 came out at 27 nM. Besides, under setting [1], the Dmax at 25 µM is 70%. The remaining activity at 25 µM (HEK-293T, read-out: WIZ Amax) was 30%.
The corresponding values for `CC(C)N1CCC(Cc2ccn3ncc(N4CCC(=O)NC4=O)c3c2)CC1` [Example 37, 1-(5-((1-isopropylpiperidin-4-yl)methyl)pyrazolo[1,5-a]pyridin-3-yl)dihydropyrimidine-2,4(1H,3H)-dione] are 446 nM, 72% and 28%.
Take `C[C@H]1C[C@H](Cc2ccn3ncc(N4CCC(=O)NC4=O)c3c2)CCN1C(=O)N1CCCC1` [Example 295]: the DC50 is 24 nM. Further, the Dmax at 25 µM under setting [1] was 80%. For the same molecule, the remaining activity at 25 µM (HEK-293T, read-out: WIZ Amax) worked out at 20%.
The corresponding values for `CO[C@H]1CC[C@H](CN2CCC(Cc3ccn4ncc(N5CCC(=O)NC5=O)c4c3)CC2)CC1` [Example 64, 1-(5-((1-(((1r,4r)-4-methoxycyclohexyl)methyl)piperidin-4-yl)methyl)pyrazolo[1,5-a]pyridin-3-yl)dihydropyrimidine-2,4(1H,3H)-dione] are 43 nM, 94% and 6%.
On the same counts, the results for `C[C@H]1CN(Cc2ccn3ncc(N4CCC(=O)NC4=O)c3c2)CCN1CC1CC1` [Example 321, (S)-1-(5-((4-(cyclopropylmethyl)-3-methylpiperazin-1-yl)methyl)pyrazolo[1,5-a]pyridin-3-yl)dihydropyrimidine-2,4(1H,3H)-dione] are 67 nM, 78% and 22%.
Regarding `O=C1CCN(c2cnn3ccc(CC4(F)CCN(Cc5ccccc5)CC4)cc23)C(=O)N1` [Example 126, 1-(5-((1-benzyl-4-fluoropiperidin-4-yl)methyl)pyrazolo[1,5-a]pyridin-3-yl)dihydropyrimidine-2,4(1H,3H)-dione], the DC50 worked out at 290 nM. The Dmax at 25 µM under setting [1] turned out to be 35%. In addition, where the note is “HEK-293T, read-out: WIZ Amax”, the remaining activity at 25 µM is 65%.
For `O=C1CCN(c2cnn3ccc(CC4CCN(Cc5ccccn5)CC4)cc23)C(=O)N1` [Example 111], the DC50 stood at 304 nM. In addition, the Dmax at 25 µM under setting [1] turned out to be 56%. For the same molecule, for the setting “HEK-293T, read-out: WIZ Amax”, the remaining activity at 25 µM came to 44%.
On to `O=C1CCN(c2cnn3ccc(CC4CCN(C5CCC5)CC4)cc23)C(=O)N1` [Example 282, 1-(5-((1-cyclobutylpiperidin-4-yl)methyl)pyrazolo[1,5-a]pyridin-3-yl)dihydropyrimidine-2,4(1H,3H)-dione], for which the DC50 worked out at 1 nM. Besides, the Dmax at 25 µM under setting [1] came to 81%. Besides, the remaining activity at 25 µM (HEK-293T, read-out: WIZ Amax) was 19%.
As for `C[C@H]1CN(Cc2ccn3ncc(N4CCC(=O)NC4=O)c3c2)CCN1C1CC2(C1)CN(C)C2` [Example 336, (S)-1-(5-((3-methyl-4-(2-methyl-2-azaspiro[3.3]heptan-6-yl)piperazin-1-yl)methyl)pyrazolo[1,5-a]pyridin-3-yl)dihydropyrimidine-2,4(1H,3H)-dione], the DC50 worked out at 12000 nM. In addition, the Dmax at 25 µM under setting [1] is 76%. Besides, the remaining activity at 25 µM (HEK-293T, read-out: WIZ Amax) was 24%.
Take `C[C@H]1C[C@H](Cc2ccn3ncc(-n4ccc(=O)[nH]c4=O)c3c2)CCN1C(=O)C1CC1` [Example 355, 1-(5-(((2S,4R)-1-(cyclopropanecarbonyl)-2-methylpiperidin-4-yl)methyl)pyrazolo[1,5-a]pyridin-3-yl)pyrimidine-2,4(1H,3H)-dione]: the DC50 worked out at 183 nM. Further, under setting [1], the Dmax at 25 µM turned out to be 82%. Besides, where the note is “HEK-293T, read-out: WIZ Amax”, the remaining activity at 25 µM worked out at 18%.
On the same counts, the results for `COc1cn(-c2cnn3ccc(C[C@@H]4CCN(CC5CCC(F)(F)CC5)[C@@H](C)C4)cc23)c(=O)[nH]c1=O` [Example 353, 1-(5-(((2S,4R)-1-((4,4-difluorocyclohexyl)methyl)-2-methylpiperidin-4-yl)methyl)pyrazolo[1,5-a]pyridin-3-yl)-5-methoxypyrimidine-2,4(1H,3H)-dione] are 9100 nM, 70% and 30%.
For the molecule `CC(C)CN1CCN(Cc2ccn3ncc(N4CCC(=O)NC4=O)c3c2)[C@H](C)C1` [Example 220], the DC50 worked out at 133 nM. Under setting [1], the Dmax at 25 µM was 66%. The remaining activity at 25 µM (HEK-293T, read-out: WIZ Amax) stood at 34%.
Take `CC(CN1CCC(Cc2ccn3ncc(N4CCC(=O)NC4=O)c3c2)CC1)C1CCCCC1` (stereo not drawn) [Example 10, 1-(5-((1-(2-cyclohexylpropyl)piperidin-4-yl)methyl)pyrazolo[1,5-a]pyridin-3-yl)dihydropyrimidine-2,4(1H,3H)-dione]: the DC50 is 4 nM. Under setting [1], the Dmax at 25 µM came out at 84%. Where the note is “HEK-293T, read-out: WIZ Amax”, the remaining activity at 25 µM amounted to 16%.
The corresponding values for `CC(C)(O)CN1CCN(Cc2ccn3ncc(N4CCC(=O)NC4=O)c3c2)CC1` [Example 183, 1-(5-((4-(2-hydroxy-2-methylpropyl)piperazin-1-yl)methyl)pyrazolo[1,5-a]pyridin-3-yl)dihydropyrimidine-2,4(1H,3H)-dione] are 468 nM, 65% and 35%.
In the case of `C[C@H]1CN(Cc2ccn3ncc(N4CCC(=O)NC4=O)c3c2)CCN1C1CC2(C1)CN(S(C)(=O)=O)C2` [Example 337, (S)-1-(5-((3-methyl-4-(2-(methylsulfonyl)-2-azaspiro[3.3]heptan-6-yl)piperazin-1-yl)methyl)pyrazolo[1,5-a]pyridin-3-yl)dihydropyrimidine-2,4(1H,3H)-dione], the DC50 came out at 399 nM. Also, the Dmax at 25 µM under setting [1] was 83%. Also, the remaining activity at 25 µM (HEK-293T, read-out: WIZ Amax) is 17%.
Take `C[C@H]1C[C@H](Cc2ccn3ncc(N4CCC(=O)NC4=O)c3c2)CCN1C1COC1` [Example 279, 1-(5-(((2S,4R)-2-methyl-1-(oxetan-3-yl)piperidin-4-yl)methyl)pyrazolo[1,5-a]pyridin-3-yl)dihydropyrimidine-2,4(1H,3H)-dione]: the DC50 was 26 nM. For the same molecule, the Dmax at 25 µM under setting [1] was found to be 91%. In addition, where the note is “HEK-293T, read-out: WIZ Amax”, the remaining activity at 25 µM turned out to be 9%.
On the same counts, the results for `C[C@H]1C[C@H](Cc2ccn3ncc(N4CCC(=O)NC4=O)c3c2)CCN1C(=O)C1CCN(C)CC1` [Example 290] are 1700 nM, 54% and 46%.
With `C[C@H]1CN(Cc2ccn3ncc(N4CCC(=O)NC4=O)c3c2)CCN1C1CCC1` [Example 329, (S)-1-(5-((4-cyclobutyl-3-methylpiperazin-1-yl)methyl)pyrazolo[1,5-a]pyridin-3-yl)dihydropyrimidine-2,4(1H,3H)-dione], the DC50 was 166 nM. Moreover, the Dmax under setting [1] was found to be 83%. Besides, the remaining activity (HEK-293T, read-out: WIZ Amax) was found to be 17%.
